From PubChem BioAssay AID179 (DTP/NCI, 2004)
Activity calls are given as the source filed them.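 The calls were made as follows: active = compounds giving half or more protection of infected cells from virus-caused growth loss, again on retest; inactive = the rest.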

Test system: CEM cells HIV-1 protection, formazan growth assay
Experiment: NCI AIDS Antiviral Assay
Details: for IC50: measured here: growth of uninfected CEM cells
Procedure, shortened: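 Protection of CEM cells against HIV-1 was scored from cell growth (soluble formazan) across five concentrations, with parallel uninfected cells. Lack of protection may reflect toxicity.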

Row | Compound | outcome | EC50 [µM] | IC50 [µM]
1 | CC(C)CC(NC(=O)C(Cc1ccccc1)NC(=O)[C@H]1CC[C@H](NC(=O)C(Cc2ccc(OC(C)(C)C)cc2)NC(=O)OC(C)(C)C)C1)C(N)=O (stereo partly specified) | inactive |  | 
2 | N#CCCC1(CCC#N)CCCCCCC(CCC#N)(CCC#N)C(O)C1O (stereo unspecified) |  | > 200 | > 200
3 | Cc1ccc2c(n1)C(N1CCC(C)CC1)=CC(=O)C2=O | inactive |  | 
4 | CC(=O)Oc1c2occc2cc2ccc(=O)oc12 |  | > 72.4 | > 72.4
5 | COc1ccc(N2N=NN(C(C)C)/C2=C(/Cl)c2nnnn2-c2ccc(OC)cc2)cc1 |  | > 200 | 9.33
6 | O=C1Sc2ccccc2C(=O)N2CS(=O)CC12 (stereo unspecified) |  | > 100 | > 100
7 | Cc1cc(=S)c2cc3c(cc2[nH]1)OCO3 |  | > 200 | 79.4
8 | O=C(O)CN(CCOCCOCCN(CC(=O)O)CC(=O)O)CC(=O)O |  | > 95.5 | 3.02
9 | C#CCOCn1cc(C)c(=O)[nH]c1=O |  | > 200 | > 200
10 | O=c1c(C(c2ccc(Cl)cc2)c2c(O)c3ccccc3n(-c3ccccc3)c2=O)c(O)c2ccccc2n1-c1ccccc1 |  | > 8.71 | > 8.71
11 | CC(CO)C1=C(c2c[nH]c3ccccc23)C2C(C)C[C@H](O)C3(C)C(C)CCC(O)C23CC1 (stereo partly specified) | inactive |  | 
12 | Cc1ccc2c(c1)[nH]c(=S)n2C=C1C(=O)NC(=O)NC1=O |  | > 100 | > 100
